# Results as given in PMC11189555, “Aryl amino acetamides prevent Plasmodium falciparum ring development via targeting the lipid-transfer protein PfSTART1” (Nature Communications, 2024).
# pEC50: −log10 of the molar value. Values joined by “and” are separate entries in the source; they are usually repeats but may differ in a detail not shown here. Equal entries are not always repeated.
# Experiments:
# [1] = tested on: PopE-F10 M-833 resistant clone (PfSTART1 N330K); test: Growth inhibition assay (72 h, LDH activity); assay type: cell-based, Plasmodium falciparum
# Experimental: The drug was then removed, and parasites were allowed to recover. Another cycle of drug treatment (3 μM M-833) was then resumed. The resistant lines were cloned out by limiting dilution (diluting the culture into a 96-well plate to achieve an average of ~0.3 parasites per well), prior to growth inhibition assays and genomic DNA (gDNA) extraction (DNeasy Blood and Tissue kit (Qiagen)[18].
# (§1) Parasite growth assays with inhibitory compounds were performed as per[11] and are fully described in the Supplementary Information. […]
# (§2) Growth inhibition assays. Synchronised ring-stage parasites (0.3-0.6% parasitemia, 2% haematocrit) were grown for 72 h in a serial-dilution of the compound under […]
# (§3) and compound 4. Note that M-833 was first purchased from MolPort (MolPort -002-267-916) then made in-house at WEHI: the differences observed in EC50s across experiments are attributed to the different batches of M -833. For some experiments, 0, 0.25 or 2.5 mM of glucosamine (GlcN) was also added. Experiments were set up in technical duplicates or triplicates. Following a freeze -thaw cycle, lactate dehydrogenase (LDH) activity was assessed as an indicator of parasite growt h 5. 30 μL of parasite culture was incubated for 30 min in the dark with 75 μL Malstat mixture (0.1 M Tris pH 9.0, 20 g/L lactic acid, pH 7.5, 0.2% Triton-X100, 0.5 g/L acetylpyridine adenine dinucleotide (APAD, Sigma), 200 μg/mL nitroblue tetrazolium (NBT; Sigma), 1 μg/mL phenozine ethosulfate (PES; Sigma)). Absorbance was then measured at 650 nm, transformed using the formula below, plotted against the logarithm of the concentrations, and a non-linear regression (log(inhibitor) vs. response, variable slope) was calculated using GraphPad Prism to assess the half-inhibitory […]
# (§4) Growth inhibition % = (1 − average(sample)− average(uRBC)) ∗ 100 […]
# (§5) The DMSO samples were also used to assess growth of parasite in the presence of 0.25 and 2.5 mM GlcN (normalised by DMSO in 0 mM GlcN). […]
# [2] = tested on: 3D7 P. falciparum parasites; test: Growth inhibition assay (72 h, LDH activity); assay type: cell-based, Plasmodium falciparum
# Experimental: as §1, §2, §3, §4, §5
structure (smiles),measurement,setting,value
Cc1cc(Cl)c(S(=O)(=O)N2CCCC2)cc1OCC(=O)NC1CCCCC1 [M-833],(av-uRBC) / (DMSO-uRBC) x100,"[1]; PopE-F10, 27.4348 nM, biological replicate 1",114.804
same,(av-uRBC) / (DMSO-uRBC) x100,"[1]; PopE-F10, 27.4348 nM, biological replicate 2",115.461
same,(av-uRBC) / (DMSO-uRBC) x100,"[1]; PopE-F10, 27.4348 nM, biological replicate 3",121.608
same,(av-uRBC) / (DMSO-uRBC) x100,"[1]; PopE-F10, 82.3045 nM, biological replicate 1",112.716
same,(av-uRBC) / (DMSO-uRBC) x100,"[1]; PopE-F10, 82.3045 nM, biological replicate 2",116.595
same,(av-uRBC) / (DMSO-uRBC) x100,"[1]; PopE-F10, 82.3045 nM, biological replicate 3",121.195
same,(av-uRBC) / (DMSO-uRBC) x100,"[1]; PopE-F10, 246.914 nM, biological replicate 1",110.71
same,(av-uRBC) / (DMSO-uRBC) x100,"[1]; PopE-F10, 246.914 nM, biological replicate 2",117.042
same,(av-uRBC) / (DMSO-uRBC) x100,"[1]; PopE-F10, 246.914 nM, biological replicate 3",120.187
same,(av-uRBC) / (DMSO-uRBC) x100,"[1]; PopE-F10, 740.741 nM, biological replicate 1",108.694
same,(av-uRBC) / (DMSO-uRBC) x100,"[1]; PopE-F10, 740.741 nM, biological replicate 2",116.419
same,(av-uRBC) / (DMSO-uRBC) x100,"[1]; PopE-F10, 740.741 nM, biological replicate 3",115.329
same,(av-uRBC) / (DMSO-uRBC) x100,"[1]; PopE-F10, 2222.22 nM, biological replicate 1",107.392
same,(av-uRBC) / (DMSO-uRBC) x100,"[1]; PopE-F10, 2222.22 nM, biological replicate 2",111.175
same,(av-uRBC) / (DMSO-uRBC) x100,"[1]; PopE-F10, 2222.22 nM, biological replicate 3",110.489
same,(av-uRBC) / (DMSO-uRBC) x100,"[1]; PopE-F10, 6666.67 nM, biological replicate 1",97.5292
same,(av-uRBC) / (DMSO-uRBC) x100,"[1]; PopE-F10, 6666.67 nM, biological replicate 2",97.5177
same,(av-uRBC) / (DMSO-uRBC) x100,"[1]; PopE-F10, 6666.67 nM, biological replicate 3",73.4437
same,(av-uRBC) / (DMSO-uRBC) x100,"[1]; PopE-F10, 20000 nM, biological replicate 1",52.2279
same,(av-uRBC) / (DMSO-uRBC) x100,"[1]; PopE-F10, 20000 nM, biological replicate 2",44.7285
same,(av-uRBC) / (DMSO-uRBC) x100,"[1]; PopE-F10, 20000 nM, biological replicate 3",18.154
same,Fold change compared to 3D7,"[1]; Supplementary Table 1, EC50 on PopE-F10 vs 3D7",> 128 fold
same,pEC50,"[1]; Supplementary Table 1, PopE-F10 (N330K), 72 h",< 5.00
same,"sample/DMSO (growth inhibition vs DMSO, LDH)","[2]; 3D7, 0 mM GlcN, M-833 0.000508053 uM, biological replicates 1-3",0.3955
same,"sample/DMSO (growth inhibition vs DMSO, LDH)","[2]; 3D7, 0 mM GlcN, M-833 0.00152416 uM, biological replicates 1-4",3.899 and 0.6135 and 1.269 and -5.021
same,"sample/DMSO (growth inhibition vs DMSO, LDH)","[2]; 3D7, 0 mM GlcN, M-833 0.00457247 uM, biological replicates 1-4",7.9783 and -0.1897 and 1.9685 and -5.962
same,"sample/DMSO (growth inhibition vs DMSO, LDH)","[2]; 3D7, 0 mM GlcN, M-833 0.0137174 uM, biological replicates 1-4",6.577 and 0.4933 and 7.305 and 4.539
same,"sample/DMSO (growth inhibition vs DMSO, LDH)","[2]; 3D7, 0 mM GlcN, M-833 0.0411523 uM, biological replicates 1-4",17.0189 and 4.351 and 25.6124 and 2.634
same,"sample/DMSO (growth inhibition vs DMSO, LDH)","[2]; 3D7, 0 mM GlcN, M-833 0.123457 uM, biological replicates 1-4",41.0894 and 22.2426 and 56.6492 and 25.1037
same,"sample/DMSO (growth inhibition vs DMSO, LDH)","[2]; 3D7, 0 mM GlcN, M-833 0.37037 uM, biological replicates 1-4",84.744 and 69.3587 and 86.7673 and 75.1317
same,"sample/DMSO (growth inhibition vs DMSO, LDH)","[2]; 3D7, 0 mM GlcN, M-833 1.11111 uM, biological replicates 1-4",95.6718 and 89.236 and 91.7104 and 88.7258
same,"sample/DMSO (growth inhibition vs DMSO, LDH)","[2]; 3D7, 0 mM GlcN, M-833 3.33333 uM, biological replicates 1-4",96.655 and 91.1143 and 93.0446 and 90.6646
same,"Growth inhibition assay, NORMALISED","[2]; 3D7, 0 mM GlcN, conc 13.7174 nM",13.0746
same,"Growth inhibition assay, NORMALISED","[2]; 3D7, 0 mM GlcN, conc 41.1523 nM",31.4939
same,"Growth inhibition assay, NORMALISED","[2]; 3D7, 0 mM GlcN, conc 123.457 nM",59.8439
same,"Growth inhibition assay, NORMALISED","[2]; 3D7, 0 mM GlcN, conc 370.37 nM",84.7029
same,"Growth inhibition assay, NORMALISED","[2]; 3D7, 0 mM GlcN, conc 1111.11 nM",90.8825
same,"Growth inhibition assay, NORMALISED","[2]; 3D7, 0 mM GlcN, conc 3333.33 nM",92.758
same,"Growth inhibition assay, NORMALISED","[2]; 3D7, 0 mM GlcN, conc 10000 nM",93.376
same,"sample/DMSO (growth inhibition vs DMSO, LDH)","[2]; 3D7, 0.25 mM GlcN, M-833 0.000508053 uM, biological replicates 1-3",3.472 and 0.2055
same,"sample/DMSO (growth inhibition vs DMSO, LDH)","[2]; 3D7, 0.25 mM GlcN, M-833 0.00152416 uM, biological replicates 1-4",7.594 and 1.781 and -0.4107 and -3.683
same,"sample/DMSO (growth inhibition vs DMSO, LDH)","[2]; 3D7, 0.25 mM GlcN, M-833 0.00457247 uM, biological replicates 1-4",11.6683 and 13.0152 and -3.5254 and -4.48
same,"sample/DMSO (growth inhibition vs DMSO, LDH)","[2]; 3D7, 0.25 mM GlcN, M-833 0.0137174 uM, biological replicates 1-4",18.8525 and 10.2866 and 0.5749 and 7.343
same,"sample/DMSO (growth inhibition vs DMSO, LDH)","[2]; 3D7, 0.25 mM GlcN, M-833 0.0411523 uM, biological replicates 1-4",37.8978 and 20.6188 and 3.974 and 3.155
same,"sample/DMSO (growth inhibition vs DMSO, LDH)","[2]; 3D7, 0.25 mM GlcN, M-833 0.123457 uM, biological replicates 1-4",60.1495 and 44.3886 and 19.2191 and 24.7586
same,"sample/DMSO (growth inhibition vs DMSO, LDH)","[2]; 3D7, 0.25 mM GlcN, M-833 0.37037 uM, biological replicates 1-4",90.2604 and 84.0393 and 70.7607 and 72.7038
same,"sample/DMSO (growth inhibition vs DMSO, LDH)","[2]; 3D7, 0.25 mM GlcN, M-833 1.11111 uM, biological replicates 1-4",94.6962 and 95.3762 and 89.746 and 88.7379
same,"sample/DMSO (growth inhibition vs DMSO, LDH)","[2]; 3D7, 0.25 mM GlcN, M-833 3.33333 uM, biological replicates 1-4",94.1176 and 95.9927 and 91.6288 and 90.366
same,"Growth inhibition assay, NORMALISED","[2]; 3D7, 0.25 mM GlcN, conc 123.457 nM",65.6199 and 63.1151
same,"Growth inhibition assay, NORMALISED","[2]; 3D7, 0.25 mM GlcN, conc 370.37 nM",87.6963 and 91.9897
same,"Growth inhibition assay, NORMALISED","[2]; 3D7, 0.25 mM GlcN, conc 1111.11 nM",93.5707 and 96.2430
same,"Growth inhibition assay, NORMALISED","[2]; 3D7, 0.25 mM GlcN, conc 3333.33 nM",94.9648 and 97.4583
same,"Growth inhibition assay, NORMALISED","[2]; 3D7, 0.25 mM GlcN, conc 10000 nM",98.3055 and 95.804
same,"NORMALISED (growth inhibition, LDH absorbance vs DMSO and uRBC)","[2]; 3D7, 2.5 mM GlcN, M833 dilution point 1 of 10 (starting concentration 10 uM)",96.8148 and 98.7231 and 95.2456
same,"NORMALISED (growth inhibition, LDH absorbance vs DMSO and uRBC)","[2]; 3D7, 2.5 mM GlcN, M833 dilution point 2 of 10 from 10 uM start",95.7251 and 93.6187 and 97.3100
same,"NORMALISED (growth inhibition, LDH absorbance vs DMSO and uRBC)","[2]; 3D7, 2.5 mM GlcN, M833 dilution point 3 of 10 from 10 uM start",96.9824 and 90.9335 and 96.6034
same,"NORMALISED (growth inhibition, LDH absorbance vs DMSO and uRBC)","[2]; 3D7, 2.5 mM GlcN, M833 dilution point 4 of 10 from 10 uM start",93.881 and 84.8839 and 92.4066
same,"NORMALISED (growth inhibition, LDH absorbance vs DMSO and uRBC)","[2]; 3D7, 2.5 mM GlcN, M833 dilution point 5 of 10 from 10 uM start",83.487 and 63.7656 and 70.6904
same,"sample/DMSO (growth inhibition vs DMSO, LDH)","[2]; 3D7, 2.5 mM GlcN, M-833 0.000508053 uM, biological replicates 1-3",-0.6607
same,"sample/DMSO (growth inhibition vs DMSO, LDH)","[2]; 3D7, 2.5 mM GlcN, M-833 0.00152416 uM, biological replicates 1-4",-1.11 and -0.7648 and -1.644 and -5.451
